Assay [1] has as its target EPHB1 (Homo sapiens, UniProt P54762). As to the kind of experiment: Kinase panel biochemical assay. The note with it: 1 μM single concentration, read-out: % residual enzyme activity. As for the experimental part:
(§1) In order to measure the protein kinase inhibitory activity (% inhibition) of the compounds of the present invention, biochemical assays were performed on the full kinase panel listed in the following Table 1.
(§2) As an test compound, 1-(3-(7-((6-(4-ethylpiperazine-1-carbonyl)pyridin-3-yl)amino)-1-methyl-2-oxo-1,4-dihydropyrimido[4,5-d]pyrimidin-3(2H)-yl)-4-methylphenyl)-3-(2-methoxyphenyl)urea (Compound No. 14) was used. The kinase inhibitory efficacy was measured upon treatment with a 1 μM single concentration of the test compound to calculate % residual enzyme activity value.
(§3) ABL1, FGFR2, TAOK2/TAO1, EPHA5, EPHB2, EPHB3, RET, LYN B, EPHA2, FRK/PTK5, EPHA8, LCK, EPHB4, FYN, KHS/MAP4K5, DDR1, EPHA3, P38a/MAPK14, EPHA4, FMS, EPHB1, HCK, FGFR1, ABL2/ARG, EPHA6, c-Src, ACK1, FLT4NEGFR3, ERBB4/HER4, DDR2, KDRNEGFR2, LYN, ZAK/MLTK, YES/YES1, BLK, FGR, MLCK2/MYLK2, TAOK1, BMX/ETK, BTK, EPHA1, JAK1, P38b/MAPK11, TIE2/TEK, FLT1NEGFR1, TXK, SRMS, RAF1, SIK1, MLK3/MAP3K11, PEAK1, TRKA, EPHA7, GLK/MAP4K3, MLK2/MAP3K10, TEC, CSK, TRKC, FES/FPS, SIK2, FGFR3, BRK, YSK4/MAP3K19, ARAF, PDGFRb, TNK1, GCK/MAP4K2, PDGFRa, TNIK, TAK1, ERBB2/HER2, LIMK1, HIPK4, FER, EGFR, JAK2, HPK1/MAP4K1, TRKB, RIPK3, LOK/STK10, LIMK2, MLK1/MAP3K9, BRAF, MEKK3, MEK5, STK32B/YANK2, FGFR4, MEKK2, SLK/STK2, FLT3, PKAcg, TAOK3/JIK, TYRO3/SKY, SIK3, IR, LRRK2, PYK2, NEK11, p70S6K/RPS6KB1, LATS2.

Assay [2] deals with FMS (Homo sapiens, UniProt P07333). As to the kind of experiment: Kinase panel biochemical assay. The note with it: 1 μM single concentration, read-out: % residual enzyme activity. The method, then: as §1, §2, §3
For assay [3], the target named is BLK (Homo sapiens, UniProt P51451). The assay is described as follows: Kinase panel biochemical assay. The note with it: 1 μM single concentration, read-out: % residual enzyme activity. The method, then: as §1, §2, §3
In assay [4] the target is SIK2 (Homo sapiens, UniProt Q9H0K1). The assay is described as follows: Kinase panel biochemical assay. The settings on record: 1 μM single concentration, read-out: % residual enzyme activity. The method, then: as §1, §2, §3
For assay [5], the target named is MEK5 (Homo sapiens, UniProt Q13163). As to the kind of experiment: Kinase panel biochemical assay. The settings on record: 1 μM single concentration, read-out: % residual enzyme activity. As for the experimental part:
as §1, §2, §3

Assay [6] has as its target MLK3/MAP3K11 (Homo sapiens, UniProt Q16584). As to the kind of experiment: Kinase panel biochemical assay. The settings on record: 1 μM single concentration, read-out: % residual enzyme activity. The method, then:
as §1, §2, §3

Assay [7] deals with HCK (Homo sapiens, UniProt P08631). As to the kind of experiment: Kinase panel biochemical assay. The note with it: 1 μM single concentration, read-out: % residual enzyme activity. The method, then:
as §1, §2, §3

Assay [8] deals with YSK4/MAP3K19 (Homo sapiens, UniProt Q56UN5). As to the kind of experiment: Kinase panel biochemical assay. The settings on record: 1 μM single concentration, read-out: % residual enzyme activity. As for the experimental part:
as §1, §2, §3

Assay [9] concerns the target T1, GCK (Homo sapiens, UniProt Q12851).
T1 sequence (Q12851 1-820): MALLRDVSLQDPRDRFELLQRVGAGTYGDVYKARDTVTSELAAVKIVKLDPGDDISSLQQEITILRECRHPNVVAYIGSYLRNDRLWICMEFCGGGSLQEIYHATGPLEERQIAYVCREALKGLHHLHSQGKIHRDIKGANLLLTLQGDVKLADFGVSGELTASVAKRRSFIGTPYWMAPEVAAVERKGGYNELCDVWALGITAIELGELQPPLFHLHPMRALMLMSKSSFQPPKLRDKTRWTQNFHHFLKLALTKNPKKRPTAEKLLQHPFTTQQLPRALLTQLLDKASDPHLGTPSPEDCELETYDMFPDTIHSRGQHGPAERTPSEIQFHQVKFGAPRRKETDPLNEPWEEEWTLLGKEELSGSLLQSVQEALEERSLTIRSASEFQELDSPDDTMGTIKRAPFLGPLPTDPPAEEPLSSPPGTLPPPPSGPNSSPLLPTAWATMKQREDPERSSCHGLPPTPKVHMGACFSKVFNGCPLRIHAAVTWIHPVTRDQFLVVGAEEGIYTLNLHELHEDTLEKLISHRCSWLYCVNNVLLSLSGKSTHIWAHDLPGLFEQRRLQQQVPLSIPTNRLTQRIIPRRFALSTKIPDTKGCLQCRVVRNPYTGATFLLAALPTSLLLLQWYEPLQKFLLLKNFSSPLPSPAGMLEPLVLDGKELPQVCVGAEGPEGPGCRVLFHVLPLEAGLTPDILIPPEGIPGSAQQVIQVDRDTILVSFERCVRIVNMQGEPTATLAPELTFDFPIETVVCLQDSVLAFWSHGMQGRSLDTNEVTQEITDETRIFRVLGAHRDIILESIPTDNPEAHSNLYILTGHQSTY
The assay is described as follows: GCK kinase inhibitory activity. The format is biochemical. The settings on record: read-out: Kinase inhibitory efficacy, GI50 GCK. The method, then: (§4) GI50 values were calculated by measuring the inhibitory efficacy of the compounds of the present invention against both GCK and ACK1 kinases.

Assay [10] concerns Ba/F3 (N-Ras G12D). The assay is described as follows: Proliferation inhibitory activity, Ba/F3. The settings on record: Mus musculus, BaF3; Ba/F3 (N-Ras G12D) cell line; read-out: Proliferation inhibitory efficacy (GI50, μM) Ba/F3 (N-Ras G12D). In kind it is cell-based. The method, then:
(§5) GI50 values were calculated by measuring the proliferation inhibitory efficacy of the compounds of the present invention on mt-NRAS (G12D) Ba/F3, U937 (wt-NRAS) and OCI-AML3 (mt-NRAS) cell lines.

Assay [11] concerns U937 (N-Ras WT). As to the kind of experiment: Proliferation inhibitory activity, U937. In kind it is cell-based. The settings on record: Homo sapiens, U-937; U937 (N-Ras WT) cell line; read-out: Proliferation inhibitory efficacy (GI50, μM) U937 (N-Ras WT). As for the experimental part: as §5
In assay [12] the test system is OCI-AML3 (N-Ras Q61L). As to the kind of experiment: Proliferation inhibitory activity, OCI-AML3. The settings on record: Homo sapiens, OCI-AML-3; OCI-AML3 (N-Ras Q61L) cell line; read-out: Proliferation inhibitory efficacy (GI50, μM) OCI-AML3 (N-Ras Q61L). The format is cell-based. The method, then: as §5
Accordingly, the compounds of the present invention are particularly effective as a therapeutic agent for acute myelogenous leukemia (AML).

In assay [13] the target is ACK1 (Homo sapiens, UniProt Q07912). The assay is described as follows: ACK1 kinase inhibitory activity. The format is biochemical. The note with it: read-out: Kinase inhibitory efficacy, GI50 ACK1. As for the experimental part: as §4

SMILES strings stand for the structures.

MEK5, sequence (Q13163 whole entry): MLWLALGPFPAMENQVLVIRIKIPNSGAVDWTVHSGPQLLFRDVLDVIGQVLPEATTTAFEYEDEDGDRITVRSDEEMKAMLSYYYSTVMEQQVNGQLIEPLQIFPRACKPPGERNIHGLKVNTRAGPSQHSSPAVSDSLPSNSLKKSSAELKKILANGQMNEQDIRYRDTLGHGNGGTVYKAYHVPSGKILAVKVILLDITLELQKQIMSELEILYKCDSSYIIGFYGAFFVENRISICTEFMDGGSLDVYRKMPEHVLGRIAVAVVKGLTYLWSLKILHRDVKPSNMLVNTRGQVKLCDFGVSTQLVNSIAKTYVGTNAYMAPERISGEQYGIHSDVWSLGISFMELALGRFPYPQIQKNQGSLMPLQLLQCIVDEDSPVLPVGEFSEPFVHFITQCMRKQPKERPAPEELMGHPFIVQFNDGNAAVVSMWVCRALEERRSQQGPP
BLK, sequence (P51451 whole entry): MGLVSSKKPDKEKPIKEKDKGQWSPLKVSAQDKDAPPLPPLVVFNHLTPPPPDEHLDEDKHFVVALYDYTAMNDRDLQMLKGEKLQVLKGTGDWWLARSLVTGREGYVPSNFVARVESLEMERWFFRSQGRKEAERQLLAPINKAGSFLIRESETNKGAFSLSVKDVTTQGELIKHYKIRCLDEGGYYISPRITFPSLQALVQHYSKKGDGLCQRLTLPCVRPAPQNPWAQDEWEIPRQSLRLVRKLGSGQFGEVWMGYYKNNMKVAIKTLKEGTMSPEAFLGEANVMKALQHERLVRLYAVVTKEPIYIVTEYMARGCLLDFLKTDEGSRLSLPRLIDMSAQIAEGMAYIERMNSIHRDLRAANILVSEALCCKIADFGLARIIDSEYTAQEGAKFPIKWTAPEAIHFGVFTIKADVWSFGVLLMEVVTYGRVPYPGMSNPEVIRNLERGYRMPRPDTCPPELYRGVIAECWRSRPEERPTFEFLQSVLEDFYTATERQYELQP
ACK1, sequence (Q07912 whole entry): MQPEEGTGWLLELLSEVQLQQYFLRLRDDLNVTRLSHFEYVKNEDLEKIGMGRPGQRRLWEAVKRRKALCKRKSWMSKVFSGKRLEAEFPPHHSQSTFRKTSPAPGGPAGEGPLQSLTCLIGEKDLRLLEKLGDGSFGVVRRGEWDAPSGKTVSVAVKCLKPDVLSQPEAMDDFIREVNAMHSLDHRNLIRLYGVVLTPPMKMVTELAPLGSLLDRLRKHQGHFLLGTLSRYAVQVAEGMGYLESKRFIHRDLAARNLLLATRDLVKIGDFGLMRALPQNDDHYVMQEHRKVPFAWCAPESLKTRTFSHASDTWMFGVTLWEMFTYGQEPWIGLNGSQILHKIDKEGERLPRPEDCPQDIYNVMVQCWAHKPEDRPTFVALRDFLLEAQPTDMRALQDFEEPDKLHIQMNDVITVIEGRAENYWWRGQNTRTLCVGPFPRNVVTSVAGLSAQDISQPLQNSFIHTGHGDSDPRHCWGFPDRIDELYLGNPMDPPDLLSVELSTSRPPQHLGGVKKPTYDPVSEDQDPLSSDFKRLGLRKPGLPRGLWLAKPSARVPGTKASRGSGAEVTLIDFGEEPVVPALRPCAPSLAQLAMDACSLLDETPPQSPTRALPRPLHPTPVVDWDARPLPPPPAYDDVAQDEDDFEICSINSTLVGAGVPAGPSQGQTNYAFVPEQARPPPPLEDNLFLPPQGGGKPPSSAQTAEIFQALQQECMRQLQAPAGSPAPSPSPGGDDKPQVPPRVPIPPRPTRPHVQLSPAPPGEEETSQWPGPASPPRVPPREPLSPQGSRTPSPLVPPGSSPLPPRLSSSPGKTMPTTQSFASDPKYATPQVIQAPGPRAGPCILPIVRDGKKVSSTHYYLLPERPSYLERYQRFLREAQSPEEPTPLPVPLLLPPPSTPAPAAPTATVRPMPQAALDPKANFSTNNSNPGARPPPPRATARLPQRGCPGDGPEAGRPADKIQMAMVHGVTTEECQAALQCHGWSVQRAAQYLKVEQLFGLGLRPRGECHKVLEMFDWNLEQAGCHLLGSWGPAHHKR
SIK2, sequence (Q9H0K1 whole entry): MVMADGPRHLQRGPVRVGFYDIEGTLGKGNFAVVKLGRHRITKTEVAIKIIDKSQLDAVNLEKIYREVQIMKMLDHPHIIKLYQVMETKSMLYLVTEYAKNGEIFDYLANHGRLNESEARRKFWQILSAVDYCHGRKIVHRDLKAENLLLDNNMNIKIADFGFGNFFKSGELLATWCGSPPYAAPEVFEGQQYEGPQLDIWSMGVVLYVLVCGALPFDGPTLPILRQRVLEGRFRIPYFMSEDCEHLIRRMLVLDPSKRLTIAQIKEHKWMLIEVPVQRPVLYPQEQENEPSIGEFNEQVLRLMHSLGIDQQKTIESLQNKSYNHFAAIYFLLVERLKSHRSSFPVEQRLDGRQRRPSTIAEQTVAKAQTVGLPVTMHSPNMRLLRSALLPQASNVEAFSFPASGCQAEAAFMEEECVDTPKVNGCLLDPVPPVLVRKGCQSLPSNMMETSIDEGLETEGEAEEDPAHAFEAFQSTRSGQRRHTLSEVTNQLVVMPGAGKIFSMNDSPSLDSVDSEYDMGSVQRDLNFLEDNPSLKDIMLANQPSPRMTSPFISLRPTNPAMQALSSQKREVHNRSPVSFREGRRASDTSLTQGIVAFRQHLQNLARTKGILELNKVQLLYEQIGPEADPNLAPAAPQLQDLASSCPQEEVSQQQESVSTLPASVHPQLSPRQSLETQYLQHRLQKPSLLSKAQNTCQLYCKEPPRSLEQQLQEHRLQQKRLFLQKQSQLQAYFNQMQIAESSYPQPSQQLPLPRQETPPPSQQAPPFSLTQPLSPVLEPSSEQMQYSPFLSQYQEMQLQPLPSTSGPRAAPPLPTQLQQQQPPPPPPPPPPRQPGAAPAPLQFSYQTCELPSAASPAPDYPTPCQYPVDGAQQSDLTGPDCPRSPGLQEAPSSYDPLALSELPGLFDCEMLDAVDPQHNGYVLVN
FMS, sequence (P07333 20-972): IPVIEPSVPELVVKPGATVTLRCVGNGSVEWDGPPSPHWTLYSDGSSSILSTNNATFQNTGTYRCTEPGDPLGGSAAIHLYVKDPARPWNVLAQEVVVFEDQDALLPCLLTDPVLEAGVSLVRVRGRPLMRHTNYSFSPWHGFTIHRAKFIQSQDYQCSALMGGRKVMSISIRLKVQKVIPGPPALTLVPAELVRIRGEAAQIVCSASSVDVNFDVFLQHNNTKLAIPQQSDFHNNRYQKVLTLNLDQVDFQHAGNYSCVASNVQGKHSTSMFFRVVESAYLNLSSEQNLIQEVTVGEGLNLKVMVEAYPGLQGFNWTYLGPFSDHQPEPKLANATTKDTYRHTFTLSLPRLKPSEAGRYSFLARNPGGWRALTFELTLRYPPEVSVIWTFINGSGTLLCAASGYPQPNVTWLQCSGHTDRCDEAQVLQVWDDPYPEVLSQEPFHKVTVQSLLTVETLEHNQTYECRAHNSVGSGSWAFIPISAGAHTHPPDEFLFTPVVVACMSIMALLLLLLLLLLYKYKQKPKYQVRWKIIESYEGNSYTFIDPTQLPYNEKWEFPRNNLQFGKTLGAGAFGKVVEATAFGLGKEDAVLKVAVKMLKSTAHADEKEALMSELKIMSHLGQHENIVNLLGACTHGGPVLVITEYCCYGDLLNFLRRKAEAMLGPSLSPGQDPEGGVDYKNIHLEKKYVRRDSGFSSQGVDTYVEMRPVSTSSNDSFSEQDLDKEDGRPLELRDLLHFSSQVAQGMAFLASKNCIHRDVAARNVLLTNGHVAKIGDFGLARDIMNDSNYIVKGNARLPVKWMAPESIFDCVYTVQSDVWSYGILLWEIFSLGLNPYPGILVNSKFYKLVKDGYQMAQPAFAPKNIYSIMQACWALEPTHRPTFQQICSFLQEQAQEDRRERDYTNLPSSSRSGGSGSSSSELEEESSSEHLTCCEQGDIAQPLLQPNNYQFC
EPHB1, sequence (P54762 18-984): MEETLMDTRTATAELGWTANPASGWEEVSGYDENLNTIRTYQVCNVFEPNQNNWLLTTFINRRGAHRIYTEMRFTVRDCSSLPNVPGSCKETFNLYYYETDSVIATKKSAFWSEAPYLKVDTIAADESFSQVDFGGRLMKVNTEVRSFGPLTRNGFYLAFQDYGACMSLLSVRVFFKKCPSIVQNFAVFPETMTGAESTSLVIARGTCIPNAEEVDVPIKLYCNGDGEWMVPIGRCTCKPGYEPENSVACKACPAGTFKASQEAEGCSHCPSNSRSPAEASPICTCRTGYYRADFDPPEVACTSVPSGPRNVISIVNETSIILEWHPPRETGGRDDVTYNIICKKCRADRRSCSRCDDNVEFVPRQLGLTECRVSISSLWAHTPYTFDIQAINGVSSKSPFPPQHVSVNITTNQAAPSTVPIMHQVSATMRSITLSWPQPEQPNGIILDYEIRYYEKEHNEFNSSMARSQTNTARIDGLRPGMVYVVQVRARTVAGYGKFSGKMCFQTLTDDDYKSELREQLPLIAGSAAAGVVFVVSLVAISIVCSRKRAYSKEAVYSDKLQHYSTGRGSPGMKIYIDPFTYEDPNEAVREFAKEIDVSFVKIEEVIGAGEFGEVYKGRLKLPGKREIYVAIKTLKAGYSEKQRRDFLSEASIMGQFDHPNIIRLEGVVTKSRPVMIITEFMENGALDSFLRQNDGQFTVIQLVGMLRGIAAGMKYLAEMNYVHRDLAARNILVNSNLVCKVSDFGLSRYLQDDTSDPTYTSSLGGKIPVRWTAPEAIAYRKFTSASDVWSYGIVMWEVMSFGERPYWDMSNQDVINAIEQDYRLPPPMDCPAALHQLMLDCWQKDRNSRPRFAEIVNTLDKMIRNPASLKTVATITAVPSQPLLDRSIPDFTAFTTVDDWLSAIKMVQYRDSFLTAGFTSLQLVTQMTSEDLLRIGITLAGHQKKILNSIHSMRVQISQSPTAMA

Take `CCN1CCN(C(=O)c2ccc(Nc3ncc4c(n3)N(C)C(=O)N(c3cc(NC(=O)Nc5ccccc5OC)ccc3C)C4)cn2)CC1` [Compound No. 14, 1-(3-(7-((6-(4-ethylpiperazin-1-carbonyl)pyridin-3-yl)amino)-1-methyl-2-oxo-1,4-dihydropyrimido[4,5-d]pyrimidin-3(2H)-yl)-4-methylphenyl)-3-(2-methoxyphenyl)urea]: the remaining activity at 1 µM in assay [1], in [2], in assay [3], in assay [4], in [5] and in assay [6] was at most 30% in each case. Further, the remaining activity at 1 µM in assay [7] and in assay [8] was at most 30% each time. Also, the GI50 in [9] was under 30 nM; in assay [10] it was 0.5 to 3 µM; in [11] it was at least 5 µM; in assay [12], under 0.5 µM; in assay [13], under 30 nM.

For the origin of these results see patent publication US10059717B2, “Urea compounds containing 3,4-dihydropyrimido[4,5-D]pyrimidin-2(1H)-one skeleton as protein kinase inhibitors” (KOREA INSTITUTE OF SCIENCE AND TECHNOLOGY, priority 2016, dated 2018).
